Experimental data as given in patent US20260219274A1, “POLYOL SWEETNERS AND CARDIOVASCULAR AND THROMBOTIC EVENT RISK” (THE CLEVELAND CLINIC FOUNDATION, priority 2023, published 2026).

Legend:
[1] = design: species or system mice; conditions: mouse, in vivo
Method: FIG. 11. […] Mice were gavaged with roughly molar equivalent levels of either xylitol alone (500 mg/kg in water) or erythritol alone (400 mg/kg), or both compounds (500 mg/kg xylitol and 400 mg/kg erythritol). Time-dependent changes in levels of xylitol and erythritol were quantified using LC-MS/MS in plasma (Panel A), urine (Panel B), and feces (Panel C) for the three groups of mice. At baseline, both xylitol and erythritol are present in mouse plasma at low levels (0.5-1.0 μM). […] Reported is content of xylitol and erythritol per ug of wet feces.
Stable-isotope-dilution LC-MS/MS was developed to specifically quantify xylitol in human and mouse plasma, urine and feces (fecal pellets were dissolved in water and supernatant subjected to LC-MS/MS). Ice cold methanol (800 μL) and internal standard (^13C2-arabitol) were added to the plasma samples (20 μL) or urine (20 μL) previously diluted in MQ water, followed by vortexing and centrifuging (21,000×g; 4° C. for 15 min). The clear supernatant (800 μL) was transferred into a clean, labeled glass tubes (Borosilicate glass 12×75 mm) and dried in a speed vacuum concentrator (Speed vac plus, SC210, Thermo Sevant). Acetylation was used since xylitol is poorly ionizable in order to achieve better retention on the reverse phase column and separation from other structural isomers as well as better ionization to achieve better sensitivity. The dry residue was reconstituted in acetic anhydride (100 μL) and 4-Dimethylaminopyridine (DMAP) in pyridine (100 μl; 1 mg/mL), sealed with safety caps, vortexed and heated (45 min at 80° C.) followed with drying under nitrogen. Dried residues were dissolved in HCl in water (0.1 M; 0.5 mL) and extracted with ethylacetate (2.0 mL). Ethylacetate layer was transferred into a clean glass tube (Borosilicate glass 12×75 mm) and dried under nitrogen. The dry residue was reconstituted in ammonium formate in a mixture of methanol:water (100 μL; 50:50 v/v with 10 mM ammonium formate), tubes were vortexed and liquid was transferred to glass vials with micro-insets and caped. LC-MS/MS analysis was performed on a chromatographic system consisting of two Shimadzu LC-30 AD pumps (Nexcra X2), a CTO 20AC oven operating at 30° C., and a SIL-30 AC-MP autosampler in tandem with a triple quadruple mass spectrometer (8050 series, Shimadzu Scientific Instruments, Inc., Columbia, MD, USA). For chromatographic separation, a Kinetex C18 column (50 mm×2.1 mm; 2.6 μm) (Cat #00B-4462-AN, Phenomenex, Torrance, CA) was used. […] Accuracy and precision of the method to quantify xylitol (separated from its structural isomers arabitol and ribitol) were assessed by a standard addition method of pure synthetic standard into different plasma pools. The accuracy of xylitol measurement was determined by the method of standard additions^12 using three different plasma pools, and was 2.4-2.8%. Intra- and inter-day coefficients of variation (CVs), measured by multiple analysis of three different control samples, were 1.2-8.9% and 10.9-11.5%, respectively. Freeze/thaw stability was determined over the five cycles and it was less than 7% for xylitol. The limit of quantification (LOQ) was defined (by convention) as the level at which xylitol was measured within the matrix (plasma) with a peak having signal-to-noise-ratio of 10:1. Limit of detection (LOD) was determined to be the lowest concentration of xylitol in the sample with a signal-to-noise ratio ≥3. […]

[2] = test system: washed human platelets; test: Platelet flow cytometry assay (P-selectin, PAC-1); type: cell-based; conditions: for ADP-stimulated P-selectin surface expression / ADP-stimulated glycoprotein α2β3 (GP IIb/IIIa) activation: pre-incubation with the polyol, ADP 2 μM
Method: Antibody staining of washed platelets for flow cytometry was performed as described previously^41 with further information outlined in additional methods. […]
Washed platelets and antibody staining for flow cytometry was performed as described previously using sodium citrate (0.109 M) as anti-coagulant^51. Washed platelets were separated by centrifugation at 500×g for 10 min and re-suspended in modified Hank's buffered salt solution without PGE1. Final platelet suspensions (100 μL; 2×10^8 platelets/mL) were then pre-incubated with erythritol, glucose or 1,5-AHG (at indicated concentrations) for 30 min at 22° C. Platelets were then stimulated with 2 μM ADP for 10 min and incubated with PE conjugated anti-P-selectin (CD62P-PE, Catalogue #555524, BD PharMingen, San Diego, CA, USA; 2.5 μL/100 μL) or Fluorescein isothiocyanate (FITC) conjugated PAC1 (binds only to active conformation of GP IIb/IIIa, Catalogue #3 40507, BD PharMingen, San Diego, CA, USA; 5 μL/100 μL) or isotype control antibody (PE IgG isotype control, Catalogue #555749 or FITC IgM Isotype control, Catalogue #555583, BD PharMingen, San Diego, CA, USA) in the dark for 20 min. The platelet suspensions were then fixed with 100 μL of 2% paraformaldehyde. Data was acquired on a flow cytometer (FACS LSR Fortessa, BD Biosciences, Franklin Lakes, New Jersey, USA). Twenty thousand (20,000) events were collected. The data was analyzed with FACSDiva Software (v.9.0) (BD Biosciences). Platelets were gated to exclude doublets (FIG. 28) and the raw mean fluorescent intensity (MFI) of either P-selectin (CD62P) or PAC-1 was quantified.

OC[C@@H](O)[C@@H](O)CO [erythritol]
baseline plasma level [1]: 0.5 to 1.0 µM
oral absorption in mice ([1]; po): rapidly absorbed
ADP-stimulated P-selectin surface expression [2]: dose-dependent enhancement
ADP-stimulated glycoprotein α2β3 (GP IIb/IIIa) activation [2]: dose-dependent enhancement
erythritol concentration eliciting significant stimulus-dependent enhancement in P-selectin surface expression ([2]; threshold, FIG. 17): 18 µM
erythritol concentration eliciting significant stimulus-dependent enhancement in activated GP IIbIIIa surface expression ([2]; threshold, FIG. 17): 4.5 µM

OC[C@@H](O)[C@H](O)[C@@H](O)CO [xylitol]
baseline plasma level [1]: 0.5 to 1.0 µM
postprandial increase in urine [1]: Significant xylitol increases also were not observed
recovery in feces [1]: the majority of xylitol is recovered in feces
ADP-stimulated P-selectin surface expression [2]: dose-dependent enhancement
ADP-stimulated glycoprotein α2β3 (GP IIb/IIIa) activation [2]: dose-dependent enhancement
